Results reported in patent US6130215A, “Piperazinylalkylthiopyrimidine derivatives, pharmaceutical compositions containing the same and a process for the preparation of the novel compounds” (Egis Gyoyszergyar RT, priority 1995, dated 2000).

Legend:
[1] = biological target: T1, 5-HT2C receptor (Sus scrofa, UniProt K7GSR7); experiment: 5-HT2C receptor binding ([3H]mesulergine, pig brain choroid plexus membrane preparation); settings: tritiated mesulergine, 37° C., read-out: Inhibition of receptor binding of the radioactive ligand, 5-HT2C (Ki)
T1 construct: pig brain choroid plexus membrane preparation; from tissue; host or cells: pig brain choroid plexus membrane preparation
T1 sequence (K7GSR7 1-457): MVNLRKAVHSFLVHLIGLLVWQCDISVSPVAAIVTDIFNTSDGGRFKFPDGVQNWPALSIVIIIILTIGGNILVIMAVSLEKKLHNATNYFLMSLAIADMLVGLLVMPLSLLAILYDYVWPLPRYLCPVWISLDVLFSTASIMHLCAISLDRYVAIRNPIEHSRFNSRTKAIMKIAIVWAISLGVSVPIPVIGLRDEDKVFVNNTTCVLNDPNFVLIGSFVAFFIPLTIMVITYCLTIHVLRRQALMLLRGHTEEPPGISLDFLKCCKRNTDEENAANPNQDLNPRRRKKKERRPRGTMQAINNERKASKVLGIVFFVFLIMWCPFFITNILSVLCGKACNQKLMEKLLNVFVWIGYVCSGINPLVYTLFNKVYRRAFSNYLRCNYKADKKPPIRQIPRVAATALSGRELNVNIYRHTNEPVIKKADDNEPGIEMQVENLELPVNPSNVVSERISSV
Description: (§1) 5-HT2A and 5-HT2C receptor binding was measured according to the methods described by Leysen et al. /Mol. Pharmacol., 21, 301 (1981)/ and Pazos et al. /Eur. J. Pharmacol., 106, 539 (1985)/, respectively. 5-HT2A receptor binding was measured in rat brain frontal cortex membrane preparation using tritiated ketanserine /3-/2-(4-fluorobenzoyl)- -1-piperidinyl/ethyl-2,4-(1H,3H)-quinazoline-dione/(60-90 Ci/mmole) as ligand. 5-HT2C receptor binding was measured in pig brain choroid plexus membrane preparation using tritiated mesulergine /N'-/(8)-1,6-dimethyl-ergoline-8-yl/-N,N-dimethylsulfamide (70-85 Ci/mmole) as the ligand. Non-specific binding to 5-HT2A and 5-HT2C receptors were determined in the presence of 10 micro M cyproheptadine/4-(5H-dibenzo/a,d/cycloheptene-5-ylidene)-1-methylpiperidine/ and 1 micro M mianserine/1,2,3,4,10,14b-hexahydro-2-methyldibenzo-/c,f/pyrazino/1,2-a/azepine/, respectively. The final incubation volumes were 250 and 1000 microlitres. Samples were incubated for 15 and 30 minutes at 37° C. Incubation was stopped by adding 9 ml of ice-cold 50 mM tris(hydroxymethyl)-aminomethane hydrochloride (pH=7.7) to the reaction mixture. The samples were rapidly filtered through Whatman GF/B glass fiber filters using reduced pressure. Before use, the filters were soaked in a 0.05% poly-ethyleneimine solution for 2 to 3 hours. Radioactivity of the filters was determined by a scintillation spectrometer.

[2] = biological target: T2, 5-HT2A receptor (Rattus norvegicus, UniProt P14842); experiment: 5-HT2A receptor binding ([3H]ketanserine, rat brain frontal cortex membrane preparation); settings: tritiated ketanserine, 37° C., read-out: Inhibition of receptor binding of the radioactive ligand, 5-HT2A (Ki)
T2 construct: rat brain frontal cortex membrane preparation; from tissue; host or cells: rat brain frontal cortex membrane preparation
Description: as §1

[3] = biological target: T3, 5-HT2A receptor (Oryctolagus cuniculus, UniProt G1SYA7); experiment: 5-HT2A receptor antagonistic effect: inhibition of 5-HT-evoked contractions on isolated rabbit aortic strips; format: cell-based, rabbit (New-Zealand, male, white); settings: 5-HT 10^-6 M; phenoxybenzamine 10^-8 M; tranylcypramine 10^-7 M; 10 minutes incubation
T3 construct: The thoracic aorta segment after the aortic arch was removed; from tissue; host or cells: rabbit thoracic aorta, helical strips
Description: New-Zealand, male, white rabbits weighing 2.0 to 2.5 kg were killed by a blow on the head. The thoracic aorta segment after the aortic arch was removed and placed into a Krebs' solution (NaCl 118 mM, KCl 4.6 mM, NaHCO3 25 mM, glucose 10.5 mM, […] 1 mM, KH2PO4 1 mM, CaCl2 2.6 mM). The aorta was carefully cleaned from fat and connective tissue, and was cut into 3 mm wide and 30 mm long helical strips. Four strips were obtained from each rabbit. The strips were equilibrated at 37° C. for 60 minutes in an organ chamber filled with Krebs' solution. The strips were also oxygenated by bubbling carbogen gas (5% of carbon dioxide and 95% of oxygen) through the solution. The strips were stretched by 1 g tension.
The contractions were measured by a Hugo Sachs K-30 type strain gauge, and were registered on a Multicorder type polygraph. During the last 40 minutes of the equilibration, the MAO enzym inhibitor tranylcypramine (10^-7 M) /chemical name: (±)-trans-2-phenylcyclopropylamine/ was also added to the bath.
Any alpha-adrenergic effects of the test compounds were eliminated by 10^-8 M of phenoxybenzamine /N-(2-chloroethyl)-N-(1-methyl-2-phenoxyethyl)benzylamine/ /Clancy et al., J. Pharm. Exp. Ther., 233, 761 (1985). Testing of the serotonergic antagonistic effect was started at the 90th minute of incubation. The stability and reproducibility of the contractile response of the aortic strips to serotonin was tested by two consecutive application and wash-out procedures of 10^-6 M concentration of 5-HT, 40 minutes apart. […] 30 minutes after the second testing, a preset concentration of the test compound was added to the bath, and, after a 10 minutes incubation time, the response to 10^-6 M of 5-HT was determined in the presence of the compound to be tested.
Two different concentrations of a given compound were tested on each aortic strip by the above method. Reproducibility of the control 5-HT-evoked response was checked between testing the two concentrations of the compound.
IC50 was calculated by nonlinear curve fitting of the inhibitory effect of increasing concentrations of the test compound.

T2 sequence (P14842 whole entry): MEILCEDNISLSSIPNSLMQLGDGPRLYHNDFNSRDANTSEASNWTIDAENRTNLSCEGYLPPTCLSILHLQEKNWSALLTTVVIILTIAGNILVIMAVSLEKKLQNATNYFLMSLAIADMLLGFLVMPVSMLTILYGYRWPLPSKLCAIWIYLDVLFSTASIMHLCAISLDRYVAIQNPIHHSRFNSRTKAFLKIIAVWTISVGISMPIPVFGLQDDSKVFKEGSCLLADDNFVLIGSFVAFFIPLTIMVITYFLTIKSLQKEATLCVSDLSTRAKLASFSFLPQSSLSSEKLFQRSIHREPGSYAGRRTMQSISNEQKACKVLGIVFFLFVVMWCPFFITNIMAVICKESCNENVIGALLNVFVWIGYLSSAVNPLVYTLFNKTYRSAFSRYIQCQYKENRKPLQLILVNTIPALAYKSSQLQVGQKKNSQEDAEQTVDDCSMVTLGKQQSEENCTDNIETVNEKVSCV
T3 sequence (G1SYA7 1-469): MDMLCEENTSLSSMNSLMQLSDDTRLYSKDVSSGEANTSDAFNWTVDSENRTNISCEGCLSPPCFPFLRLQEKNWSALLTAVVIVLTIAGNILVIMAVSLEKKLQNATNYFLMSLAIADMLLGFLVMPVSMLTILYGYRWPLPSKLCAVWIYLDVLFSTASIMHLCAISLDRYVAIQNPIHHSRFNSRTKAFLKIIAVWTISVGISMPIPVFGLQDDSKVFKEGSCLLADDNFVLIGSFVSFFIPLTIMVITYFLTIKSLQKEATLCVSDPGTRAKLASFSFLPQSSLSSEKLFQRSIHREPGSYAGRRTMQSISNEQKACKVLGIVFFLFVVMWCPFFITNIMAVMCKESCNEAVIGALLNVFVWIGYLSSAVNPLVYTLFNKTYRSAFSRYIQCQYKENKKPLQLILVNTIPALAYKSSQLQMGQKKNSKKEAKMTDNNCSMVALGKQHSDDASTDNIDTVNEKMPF

With Nc1cc(N)nc(SCCN2CCN(Cc3ccc(F)cc3)CC2)n1 [Example 3, 2-[2-/4-(4-Fluorobenzyl)-1-piperazinyl/-ethylthio]-7-4,6-diaminopyrimidine] the Ki [1] was > 100 nM, the Ki [2] was 58 nM and the IC50 [3] was 960 nM.

Nc1cc(N)nc(SCCN2CCN(Cc3ccccc3Cl)CC2)n1 [Example 5, 2-[2-/4-(2-Chlorobenzyl)-1-piperazinyl/-ethylthio]-4,6-diaminopyrimidine] was tested, and the Ki [1] was 67 nM, the Ki [2] was 16 nM and the IC50 [3] was 250 nM.

For COc1cccc(CN2CCN(CCSc3nc(N)c(Cc4ccccc4)c(N)n3)CC2)c1 [Example 12, 2-[2-/4-(3-Methdxybenzyl)-1-piperazinyl/-ethylthio]-4,6-diamino-5-benzylpyrimidine], the Ki [1] was 47 nM and the Ki [2] was > 100 nM.

Nc1nc(SCCN2CCN(Cc3ccccc3Cl)CC2)nc(N)c1Cc1ccccc1 [Example 13, 2-[2-/4-(2-Chlorobenzyl)-1-piperazinyl/-ethylthio]-4,6-diamino-5-benzylpyrimidine] was tested, and the Ki [1] was 12 nM, the Ki [2] was 20 nM and the IC50 [3] was 120 nM.

For Nc1nc(SCCN2CCN(Cc3ccc([N+](=O)[O-])cc3)CC2)nc(N)c1Cc1ccccc1 [Example 14, 2-[2-/4-(4-Nitrobenzyl)-1-piperazinyl/-ethylthio]-4,6-diamino-5-benzylpyrimidine], the Ki [1] was > 100 nM, the Ki [2] was 78 nM and the IC50 [3] was 6000 nM.

In the case of Nc1nc(SCCN2CCN(Cc3ccc([N+](=O)[O-])cc3)CC2)nc(N)c1Cc1ccccc1O [Example 19, 2-[2-/4-(4-Nitrobenzyl)-1-piperazinyl/-ethylthio]-4,6-diamino-5-(2-hydroxybenzyl)-pyrimidine], the Ki [1] is reported as > 100 nM and the Ki [2] is reported as 48 nM.

With Nc1nc(SCCN2CCN(Cc3cccc(C(F)(F)F)c3)CC2)nc(N)c1Cc1ccc(F)cc1 [Example 21, 2-[2-/4-(3-Trifluoromethylbenzyl)-1-piperazinyl/ethylthio]4,6-diamino-5-(4-fluorobenzyl)pyrimidine] the Ki [1] was 39 nM and the Ki [2] was > 100 nM.

In the case of COc1ccc(Cc2c(N)nc(SCCN3CCN(Cc4ccc(C)cc4)CC3)nc2N)cc1 [Example 23, 2-[2-/4-(4-Methylbenzyl)-1-piperazinyl/-ethylthio]-4,6-diamino-5-(4-methoxybenzyl)-pyrimidine], the Ki [1] is reported as > 100 nM, the Ki [2] is reported as 20 nM and the IC50 [3] is reported as 670 nM.

Compound COc1ccc(Cc2c(N)nc(SCCN3CCN(Cc4ccccc4C)CC3)nc2N)cc1 [Example 24, 2-[2-/4-(2-Methylbenzyl)-1-piperazinyl/-ethylthio]-4,6-diamino-5-(4-methoxybenzyl)-pyrimidine] has a Ki [1] of 22 nM, a Ki [2] of 18 nM and an IC50 [3] of 240 nM.

With COc1ccc(Cc2c(N)nc(SCCN3CCN(Cc4ccccc4F)CC3)nc2N)cc1 [Example 25, 2-[2-/4-(2-Fluorobenzyl)-1-piperazinyl/-ethylthio]-4,6-diamino-5-(4-methoxybenzyl)-pyrimidine] the Ki [1] was > 100 nM, the Ki [2] was 20 nM and the IC50 [3] was 280 nM.

COc1ccc(Cc2c(N)nc(SCCN3CCN(Cc4cccc(C#N)c4)CC3)nc2N)cc1 [Example 26, 2-[2-/4-(3-Cyanobenzyl)-1-piperazinyl/-ethylthio]-4,6-diamino-5-(4-methoxybenzyl)-pyrimidine] was tested, and the Ki [1] was 45 nM, the Ki [2] was 48 nM and the IC50 [3] was 260 nM.

For COc1ccc(Cc2c(N)nc(SCCN3CCN(Cc4ccccc4C#N)CC3)nc2N)cc1 [Example 27, 2-[2-/4-(2-Cyanobenzyl)-1-piperazinyl/-ethylthio]-4,6-diamino-5-(4-methoxybenzyl)-pyrimidine], the IC50 [3] was 900 nM.

COc1ccc(Cc2c(N)nc(SCCN3CCN(Cc4cccc(OC)c4)CC3)nc2N)cc1 [Example 28, 2-[2-/4-(3-Methoxybenzyl)-1-piperazinyl/-ethylthio]-4,6-diamino-5-(4-methoxybenzyl)-pyrimidine] was tested, and the Ki [1] was 50 nM and the Ki [2] was > 100 nM.

For COc1ccccc1Cc1c(N)nc(SCCN2CCN(Cc3ccc([N+](=O)[O-])cc3)CC2)nc1N [Example 34, 2-[2-/4-(4-Nitrobenzyl)-1-piperazinyl/-ethylthio]-4,6-diamino-5-(2-methoxy-benzyl)pyrimidine], the Ki [1] was > 100 nM and the Ki [2] was 71 nM.

With COc1ccc(Cc2c(N)nc(SCCN3CCN(Cc4cccc(C(F)(F)F)c4)CC3)nc2N)cc1 [Example 35, 2-[2-/4-(3-Trifluoromethylbenzyl)-1-piperazinyl/-ethyl-thio]-4,6-diamino-5-(4-methoxybenzyl)pyrimidine] the Ki [1] was 69 nM and the Ki [2] was > 100 nM.

For COc1ccccc1Cc1c(N)nc(SCCN2CCN(Cc3cccc(C(F)(F)F)c3)CC2)nc1N [Example 36, 2-[2-/4-(3-Trifluoromethylbenzyl)-1-piperazinyl/ethylthio]-4,6-diamino-5-(2-methoxybenzyl)pyrimidine], the Ki [1] was 18 nM and the Ki [2] was > 100 nM.

With Cc1ccccc1CN1CCN(CCSc2nc(N)c(Cc3ccccc3Cl)c(N)n2)CC1 [Example 39, 2-[2-/4-(2-Methylbenzyl)-1-piperazinyl/-ethylthio]-4,6-diamino-5-(2-chloro-benzyl)pyrimidine] the Ki [1] was 27 nM and the IC50 [3] was 300 nM.

With Cc1ccc(CN2CCN(CCSc3nc(N)c(Cc4ccccc4Cl)c(N)n3)CC2)cc1 [Example 40, 2-[2-/4-(4-Methylbenzyl)-1-piperazinyl/-ethylthio]-4,6-diamino-5-(2-chlorobenzyl)-pyrimidine] the Ki [1] was > 100 nM and the Ki [2] was 21 nM.

Nc1nc(SCCN2CCN(Cc3ccccc3Cl)CC2)nc(N)c1Cc1ccc(Cl)cc1 [Example 47, 2-[2-/4-(2-Chlorobenzyl)-1-piperazinyl/ethylthio]-4,6-diamino-5-(4-chlorobenzyl)-pyrimidine] was tested, and the Ki [1] was 33 nM and the Ki [2] was > 100 nM.

Compound CN(C)c1ccc(Cc2c(N)nc(SCCN3CCN(Cc4ccccc4C#N)CC3)nc2N)cc1 [Example 54, 2-[2-/4-(2-Cyanobenzyl)-1-piperazinyl/-ethylthio]-4,6-diamino-5-(4-dimethylamino-benzyl)pyrimidine] has an IC50 [3] of 570 nM.

In the case of COc1ccc(CN2CCN(CCSc3nc(N)c(Cc4cc(OC)c(OC)c(OC)c4)c(N)n3)CC2)cc1 [Example 66, 2-[2-/4-(4-Methoxybenzyl)-1-piperazinyl/-ethylthio]-4,6-diamino-5-(3,4,5-trimethoxy-benzyl)pyrimidine], the Ki [1] is reported as > 100 nM and the Ki [2] is reported as 61 nM.

With CN(C)c1ccc(Cc2c(N)nc(SCCN3CCN(Cc4ccccc4Cl)CC3)nc2N)cc1 [Example 101, 2-[2-/4-(2-Chlorobenzyl)-1-piperazinyl/-ethylthio]-4,6-diamino-5-(4-dimethylamino-benzyl)pyrimidine] the Ki [1] was 24 nM and the Ki [2] was 16 nM.
